From patent US12655160B2, “KRAS G12D inhibitors” (Mirati Therapeutics, Inc., priority 2020, dated 2026)
Where a name gives a salt, the structure may show the parent alone. Read-outs that look alike come from different tables or passages of the source.

What was measured:
[1] = system: KRas G12D-mediated Phosphorylation of ERK; assay: Inhibition of KRas G12D-mediated Phosphorylation of ERK in AGS cells; assay type: cell-based; details: Homo sapiens
Procedure: AGS cells (ATCC CRL-1739) expressing G12D were grown in DMEM medium supplemented with 10% fetal bovine serum, 10 mM HEPES, and Penicillin/Streptomycin. Cells were plated in tissue culture treated 96 well plates at a density of 40,000 cells/well and allowed to attach for 12-14 hours. Diluted compounds were then added in a final concentration of 0.5% DMSO. After 3 hours, the medium was removed, 150 μl of 4.0% formaldehyde was added and the plates incubated at room temperature for 20 minutes. The plates were washed with PBS, and permeabilized with 150 μL of ice cold 100% methanol for 10 minutes. Non-specific antibody binding to the plates was blocked using 100 μL Licor blocking buffer (Li-Cor Biotechnology, Lincoln NE) for 1 hour at room temperature.
The amount of phospho-ERK was determined using an antibody specific for the phosphorylated form of ERK and compared to the amount of GAPDH. Primary antibodies used for the detection were added as follows: Phospho-ERK(Cell Signaling cs-9101) diluted 1:500 and GAPDH (Millipore MAB374) diluted 1:5000 in Licor block+0.05% Tween 20. The plates were incubated for 2 hours at room temperature. The plates were washed with PBS+0.05% Tween 20.
Secondary antibodies used to visualize primary antibodies were added as follows: Anti-rabbit-680 diluted 1:1000 and Anti-mouse-800 diluted 1:1000 both in Licor block+0.05% Tween20, and were incubated for 1 hour at room temperature. The plates were washed with PBS+0.05% Tween 20. A 100 μl aliquot of PBS was added to each well and the plates were read on a Li-Cor Odyssey CLX plate reader.
The phospho-ERK(Thr202/Tyr204 signal was normalized to the GAPDH signal for each well and percent of DMSO control values were calculated. IC50 values were generated using a 4-parameter fit of the dose response curve

KRas G12D [2] = target: T1, KRas G12D (Homo sapiens, UniProt P01116, G12D); assay: KRas G12D Surface Plasmon Resonance (SPR) Binding Assay; design: Avidin-tag (so in the source); details: Biacore T200, Biotinylated Avidin-tagged KRAS protein on SA chip, 20 C, 1:1 binding model
Procedure: This Example illustrates that exemplary compounds of the present invention bind to KRas G12D as measured by surface plasmon resonance (SPR). Briefly, 1 L of 1.05×HBS-Mg buffer (262.5 mM BioUltra Hepes, pH 7.5, 157.5 mM NaCl, 105 mM MgCl2, 0.525 mM TCEP, 0.0305% Brij-35) was prepared and filter sterilized using a 0.22 μm bottle top filter. Approximately 50 mL of 1.05×HBS-Mg buffer was removed and saved for future dilutions. A 50 mL aliquot of DMSO (Sigma Aldrich DMSO Lot. #SHBK2079) was added and continued to stir for 10 minutes, creating the final 1.0×HBS-Mg buffer (250 mM BioUltra Hepes pH 7.5, 150 mM NaCl, 100 mM MgCl2, 0.5 mM TCEP, 0.03% Brij-35). Biacore T200 instrument was primed using 1.0×HBS-Mg buffer before docking a GE Streptavidin (SA) chip and then primed two additional times prior to beginning the immobilization step. All immobilized protein mixtures were created using 3-5 mg/mL Biotinylated Avidin-tagged KRAS protein using the following immobilization settings: SA chip type, 1 flow cells per cycle, 720 second contact time, and 5 μL/min flow rate. Normalization of the detector was also performed during the immobilization step using the GE BiaNormalize solution. All compounds were diluted to 10 mM in 100% DMSO prior to being diluted 20× in 1.05× buffer. Another 10λ dilution was created using 1.0× buffer prior to performing a series of 3× dilutions to create a compound concentration curve using the following assay settings: 20 C analysis temperature, General Settings=10 Hz data collection rate and multi-detection; Assay Steps=all set to LMW kinetics; Cycle Types=LMW kinetics (60 s contact time, 120 s dissociation time, 100 μL/min flow rate, extra wash after injection with 50% DMSO, flow path 1,2,3,4); Flow path detection=2-1, 4-3). Data evaluation was performed using the Biacore T200 Evaluation software and data fit to 1:1 binding model.
Target sequence in this assay (P01116 1-188 isoform P01116-2 G12D): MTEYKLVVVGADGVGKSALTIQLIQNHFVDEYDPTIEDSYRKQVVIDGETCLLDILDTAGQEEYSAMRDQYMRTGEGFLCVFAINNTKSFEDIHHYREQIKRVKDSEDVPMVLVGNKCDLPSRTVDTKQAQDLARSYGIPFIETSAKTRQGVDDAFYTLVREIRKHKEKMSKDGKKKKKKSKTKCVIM

KRas G12D [3] = target: T1, KRas G12D; assay: KRas G12D Binding Assay (TR-FRET displacement of labeled tracer); design: corresponding to amino acids 1:169, produced at Array BioPharma Inc; biotin (biotinylated); details: TR-FRET displacement of Cy5 labelled tracer, Biotinylated GDP-loaded KRAS G12D (amino acids 1:169), 60 minute incubation at 22° C.
Method in brief: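 Biotinylated GDP-loaded KRAS G12D (aa 1:169) was incubated with Cy5 tracer, Eu-streptavidin and compound (2% DMSO) in HEPES pH 7.5, MgCl2, Tween-20, DTT, 60 min at 22° C. TR-FRET ratio gave POC; IC50 from 4-parameter fit at 50 POC.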
Target sequence in this assay (P01116 1-169 isoform P01116-2 G12D): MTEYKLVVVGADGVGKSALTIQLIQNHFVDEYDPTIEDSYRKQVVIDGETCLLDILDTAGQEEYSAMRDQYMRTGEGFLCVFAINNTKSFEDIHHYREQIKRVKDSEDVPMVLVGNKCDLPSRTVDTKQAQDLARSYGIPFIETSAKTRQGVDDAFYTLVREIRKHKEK

[4] = AGS cells expressing G12D, 3 hours, phospho-ERK signal normalized to GAPDH, read-out: IC50

SMILES | IC50 ([1]; AGS, 3 h) [nM] | Kd (KRas G12D [2]) [nM] | IC50 (KRas G12D [3]) [nM] | IC50 [1, 4] [nM]
CN(C)C1(CNc2nc(OC[C@@]34CCCN3C[C@H](F)C4)nc3c(F)c(-c4cc(O)cc5ccccc45)ncc23)CCC1 [Example 1, 4-(4-(((1-(dimethylamino)cyclobutyl)methyl)amino)-8-fluoro-2-(((2R,7aS)-2-fluorotetrahydro-1H-pyrrolizin-7a(5H)-yl)methoxy)pyrido[4,3-d]pyrimidin-7-yl)naphthalen-2-ol] | 692 | 14.7 | 19.6 | 
CN(CC1(N(C)C)CCC1)c1nc(OC[C@@]23CCCN2C[C@H](F)C3)nc2c(F)c(-c3cc(O)cc4cccc(Cl)c34)ncc12 [Example 36, 5-chloro-4-(4-(((1-(dimethylamino)cyclobutyl)methyl)(methyl)amino)-8-fluoro-2-(((2R,7aS)-2-fluorotetrahydro-1H-pyrrolizin-7a(5H)-yl)methoxy)pyrido[4,3-d]pyrimidin-7-yl)naphthalen-2-ol dihydrochloride] |  | 135 | 76.5 | 3290
CC1(CNc2nc(OC[C@@]34CCCN3C[C@H](F)C4)nc3c(F)c(-c4cc(O)cc5ccccc45)ncc23)CNC1 [Example 8, 4-(8-fluoro-2-(((2R,7aS)-2-fluorotetrahydro-1H-pyrrolizin-7a(5H)-yl)methoxy)-4-(((3-methylazetidin-3-yl)methyl)amino)pyrido[4,3-d]pyrimidin-7-yl)naphthalen-2-ol] |  | 66.8 | 39.9 | > 16700
CN(C)C1(CNc2nc(OCC34CCCN3CCC4)nc3c(F)c(-c4cccc5cccc(Cl)c45)ncc23)CCC1 [Example 54, 7-(8-chloronaphthalen-1-yl)-N-((1-(dimethylamino)cyclobutyl)methyl)-8-fluoro-2-((tetrahydro-1H-pyrrolizin-7a(5H)-yl)methoxy)pyrido[4,3-d]pyrimidin-4-amine] |  |  | 79.3 | > 16700
Oc1cc(-c2ncc3c(NC4CNC4)nc(OCC45CCCN4CCC5)nc3c2F)c2ccccc2c1 [Example 18, 4-(4-(azetidin-3-ylamino)-8-fluoro-2-((tetrahydro-1H-pyrrolizin-7a(5H)-yl)methoxy)pyrido[4,3-d]pyrimidin-7-yl)naphthalen-2-ol] |  |  | 46.5 | > 16700
C#Cc1cccc2cccc(-c3ncc4c(NCC5(N(C)C)CCC5)nc(OC[C@@]56CCCN5C[C@H](F)C6)nc4c3F)c12 [Example 20, N-((1-(dimethylamino)cyclobutyl)methyl)-7-(8-ethynylnaphthalen-1-yl)-8-fluoro-2-(((2R,7aS)-2-fluorotetrahydro-1H-pyrrolizin-7a(5H)-yl)methoxy)pyrido[4,3-d]pyrimidin-4-amine bis(2,2,2-trifluoroacetate)] |  |  | 22 | 2510
C#Cc1cccc2cc(O)cc(-c3ncc4c(NCC5(N(C)C)CCC5)nc(OC[C@@]56CCCN5C[C@H](F)C6)nc4c3F)c12 [Example 52, 4-(4-(((1-(dimethylamino)cyclobutyl)methyl)amino)-8-fluoro-2-(((2R,7aS)-2-fluorotetrahydro-1H-pyrrolizin-7a(5H)-yl)methoxy)pyrido[4,3-d]pyrimidin-7-yl)-5-ethynylnaphthalen-2-ol] | 12 | 0.04 | 0.6 | 
C#Cc1c(F)ccc2cc(O)cc(-c3ncc4c(NCC5(N(C)C)CCC5)nc(OC[C@]56CCCN5[C@@H](COC(=O)N(C)C)CC6)nc4c3F)c12 [Example 45, ((3R,7aR)-7a-(((4-(((1-(dimethylamino)cyclobutyl)methyl)amino)-7-(8-ethynyl-7-fluoro-3-hydroxynaphthalen-1-yl)-8-fluoropyrido[4,3-d]pyrimidin-2-yl)oxy)methyl)hexahydro-1H-pyrrolizin-3-yl)methyl dimethylcarbamate] |  |  | 0.4 | 38.3
CN(C)C1(CNc2nc(OC[C@@]34CCCN3C[C@H](F)C4)nc3c(F)c(-c4cc(O)cc5ccccc45)ncc23)CCCC1 [Example 7, 4-(4-(((1-(dimethylamino)cyclopentyl)methyl)amino)-8-fluoro-2-(((2R,7aS)-2-fluorotetrahydro-1H-pyrrolizin-7a(5H)-yl)methoxy)pyrido[4,3-d]pyrimidin-7-yl)naphthalen-2-ol bis(2,2,2-trifluoroacetate)] |  | 12.2 | 10 | 711
CCc1cccc2cc(O)cc(-c3ncc4c(NCC5(N(C)C)CCC5)nc(OC[C@@]56CCCN5[C@H](COC(=O)NC)CC6)nc4c3F)c12 (racemic) [Example 44] |  |  | 0.7 | 220
